“Also recorded” adds a separate entry of the source.
Assays:
N-type calcium channels = N-type calcium channels (Homo sapiens, UniProt Q00975); details: cited from earlier work
[1] = test system: male Wistar rats with pilocarpine-induced status epilepticus; experiment: Neuron loss (NeuN-positive cell counts) after status epilepticus in the lithium-pilocarpine rat model
Protocol: Male Wistar rats between 350 to 400 grams were pretreated with lithium chloride (ip; 3 mEq/kg) 17 to 24 hours before systemic injection of the chemoconvulsant pilocarpine. Pilocarpine (ip; 10 mg/kg) was administered every 30 minutes until onset of status epilepticus (SE), which was defined as a loss of consciousness and continuous overt seizure activity. […] Rats generally developed SE shortly thereafter. […] SE was terminated at 1, 3 and 5 hours following onset of SE with diazepam (ip; 4 mg/kg).
Animals were anaesthetized with ketamine and Romptum, and transcardially perfused with paraformaldehyde (PFA; 4% in 0.1M phosphate buffer, pH 7.4) 2 weeks after SE induction. Brains were removed, post-fixed overnight in PFA, and then equilibrated in 30% sucrose in PBS. Brains were then frozen at −35° C. in methylbutane and stored until further use at −70° C. in scintillation vials containing frozen 30% sucrose in PBS to prevent freezer drying. The brains were coronally sectioned at 40 μm using a freezing microtome and stored at −20° C. in 24-well plates containing antifreeze solution (15% glucose, 30% ethylene glycol, 50 mMol phosphate buffer; pH 7.4).
For each animal, neuronal cells were quantified by immunohistochemical staining with NeuN, a neuronal cell specific antibody.

[2] = test system: male Wistar rats with pilocarpine-induced status epilepticus; experiment: Lateral ventricle size after SE, Nissl (cresyl violet) stained brain sections; type: in vivo, rat; details: treated at 3 hours post-SE (0.3 and 3 nmol/gm); 14 days post-SE
Protocol: Following pilocarpine and Tat-NR2B9c administration, and fixing of brain sections, as described above, every 6th section was used for Niss1 staining with cresyl violet. Sections were mounted and allowed to air dry on gelatin coated slides. The sections were rehydrated in an alcohol series at 100%, 95%, 70%, and 50% each for 5 minutes. The sections are then placed in water for 1 minute, followed by the Cresyl Violet Stain for 20 to 30 minutes. Sections are rinsed (30 seconds×2) in water, and dehydrated in an alcohol series at 50% for 5 minutes (or less), 70% for 5 minutes (or less), 95% for 5 minutes (or less), 100% for 5 minutes (or less), and 100% for 5 minutes (or less). Differentiation occurs maximally at the 50% and 70% alcohol gradients. Sections were cleared in xylene for 5 minutes and coverslipped with Permount, and viewed, e.g., under 40× magnification.

[3] = test system: rats with status epilepticus induced by the RLDP procedure; experiment: Elevated plus maze (exploratory behaviour) at 8 weeks post-SE; type: in vivo, rat; details: administered 3 hours post-SE, 5 minutes on maze
Protocol: (§1) We investigated possible behavioral effects of 60 min SE induced with the RLDP procedure. Visual-spatial memory was investigated with the Morris water maze (MWM) at 8 weeks post-SE to detect chronic cognitive impairment. The MWM is of particular usefulness with studies involving therapeutic agents, since the severity of neurodegeneration in the anterior CA1 region is strongly correlated with performance (escape latency) (Clasussen et al, 2005). […] All groups contained at least 6 animals.
The elevated plus maze is used to investigate exploratory behaviour. At 8 weeks post-SE, animals were placed on the elevated plus maze for 5 minutes and videotaped. […] Furthermore, SE animals had reduced frequency of lookouts into the open arm and rearing episodes when compared to controls (FIGS. 12 E & F).

animal models of stroke = details: applied before or 1 hour after a stroke; cited from earlier work
[4] = test system: rats with status epilepticus induced by the RLDP procedure; experiment: Morris water maze (visual-spatial memory) at 8 weeks post-SE; type: in vivo, rat; details: administered 3 hours post-SE
Protocol: as §1
In our study animals were trained on the MWM task for 14 consecutive days, with 6 trials completed daily. […] No SE animals, however, learned the task within 6 consecutive days, with no further improvement in escape latency thereafter.

[5] = stroke indication; cited from earlier work

Chain of N-type calcium channels (Q00975 whole entry): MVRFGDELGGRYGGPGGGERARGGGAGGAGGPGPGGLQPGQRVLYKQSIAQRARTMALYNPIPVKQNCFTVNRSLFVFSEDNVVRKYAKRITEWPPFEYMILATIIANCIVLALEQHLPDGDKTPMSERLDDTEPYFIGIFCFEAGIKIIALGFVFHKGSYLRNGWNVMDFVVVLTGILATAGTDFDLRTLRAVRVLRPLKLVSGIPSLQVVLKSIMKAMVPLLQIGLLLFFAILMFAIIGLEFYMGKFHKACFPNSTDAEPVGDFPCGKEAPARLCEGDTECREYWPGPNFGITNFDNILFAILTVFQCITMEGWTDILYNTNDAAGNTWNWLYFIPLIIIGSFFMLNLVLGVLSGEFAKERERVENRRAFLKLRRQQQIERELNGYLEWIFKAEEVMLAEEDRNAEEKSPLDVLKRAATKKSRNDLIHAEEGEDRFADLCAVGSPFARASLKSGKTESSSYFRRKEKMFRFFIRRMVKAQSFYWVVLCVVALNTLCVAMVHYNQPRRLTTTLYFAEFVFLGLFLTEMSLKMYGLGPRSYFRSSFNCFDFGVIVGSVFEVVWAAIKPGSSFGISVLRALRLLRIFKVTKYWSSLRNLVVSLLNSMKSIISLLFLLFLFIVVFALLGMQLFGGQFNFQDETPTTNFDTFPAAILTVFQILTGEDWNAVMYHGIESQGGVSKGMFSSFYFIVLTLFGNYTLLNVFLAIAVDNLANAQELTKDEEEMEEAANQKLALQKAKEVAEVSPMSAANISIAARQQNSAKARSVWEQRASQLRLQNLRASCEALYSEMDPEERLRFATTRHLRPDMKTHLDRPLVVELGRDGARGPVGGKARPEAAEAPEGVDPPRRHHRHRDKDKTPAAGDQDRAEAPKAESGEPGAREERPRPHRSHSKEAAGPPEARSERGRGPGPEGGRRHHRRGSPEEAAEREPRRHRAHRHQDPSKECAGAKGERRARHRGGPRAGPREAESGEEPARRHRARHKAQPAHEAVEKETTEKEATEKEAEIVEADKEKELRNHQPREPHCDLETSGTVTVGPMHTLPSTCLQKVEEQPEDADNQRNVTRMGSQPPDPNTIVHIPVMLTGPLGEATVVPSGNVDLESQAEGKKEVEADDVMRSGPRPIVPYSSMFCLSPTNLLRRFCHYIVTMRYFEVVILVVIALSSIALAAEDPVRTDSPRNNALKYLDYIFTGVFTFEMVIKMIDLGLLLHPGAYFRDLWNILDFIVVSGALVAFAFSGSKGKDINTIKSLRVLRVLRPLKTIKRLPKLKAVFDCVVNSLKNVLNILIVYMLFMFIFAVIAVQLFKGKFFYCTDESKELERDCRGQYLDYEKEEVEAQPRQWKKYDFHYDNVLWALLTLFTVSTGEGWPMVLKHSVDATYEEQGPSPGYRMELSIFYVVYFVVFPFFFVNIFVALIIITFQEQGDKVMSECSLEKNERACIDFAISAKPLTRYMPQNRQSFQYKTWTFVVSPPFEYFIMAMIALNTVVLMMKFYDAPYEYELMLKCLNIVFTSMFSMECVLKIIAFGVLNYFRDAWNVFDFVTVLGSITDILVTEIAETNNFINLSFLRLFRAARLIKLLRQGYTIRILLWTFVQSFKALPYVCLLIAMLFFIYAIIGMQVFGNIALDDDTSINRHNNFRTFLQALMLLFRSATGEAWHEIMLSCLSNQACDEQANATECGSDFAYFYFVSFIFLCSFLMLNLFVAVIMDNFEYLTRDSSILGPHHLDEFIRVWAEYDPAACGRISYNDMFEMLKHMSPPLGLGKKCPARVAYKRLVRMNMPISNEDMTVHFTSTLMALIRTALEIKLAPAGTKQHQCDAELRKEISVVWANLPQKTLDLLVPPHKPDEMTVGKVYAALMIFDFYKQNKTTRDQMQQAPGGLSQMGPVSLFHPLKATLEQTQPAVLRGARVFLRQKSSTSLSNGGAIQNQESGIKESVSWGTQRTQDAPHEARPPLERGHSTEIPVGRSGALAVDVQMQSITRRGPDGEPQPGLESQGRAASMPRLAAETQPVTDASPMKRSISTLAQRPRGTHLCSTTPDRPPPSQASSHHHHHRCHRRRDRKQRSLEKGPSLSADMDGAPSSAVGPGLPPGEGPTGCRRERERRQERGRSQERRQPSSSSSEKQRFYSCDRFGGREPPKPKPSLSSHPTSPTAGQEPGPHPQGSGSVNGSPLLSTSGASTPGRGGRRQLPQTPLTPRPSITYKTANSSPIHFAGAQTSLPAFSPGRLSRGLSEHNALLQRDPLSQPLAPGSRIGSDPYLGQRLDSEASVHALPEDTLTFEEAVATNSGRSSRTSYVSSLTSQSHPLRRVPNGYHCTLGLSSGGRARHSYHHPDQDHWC

Sequence | Binding to and inhibition of N-type calcium channels (N-type calcium channels) | Neuroprotection / neuron loss (NeuN-positive cells), peptide administered during status epilepticus ([1]; administered 10 minutes following initiation of SE, 0.3, 3 and 9 nmol/gm, 7 days after SE) | NeuN-immunostaining of coronal sections of the dorsal hippocampus (histochemical visualization) ([1]; administered 3 hours following the insult, 2.5x and 40x magnification) | Neuroprotection / neuron loss (NeuN-positive cells), anterior (dorsal) CA1 region of the hippocampus ([1]; administered via femoral vein 3 hours after termination of SE, 0.3 or 3 nmol/gm, 14 days recovery) | Number of surviving neuronal cells near the subicular border of the CA1 region ([1]; compared to saline-treated animals) | Neuroprotection in the CA4 region ([1]; rat, in vivo) | Size of lateral ventricles following SE [2] | Effects of SE on exploratory behaviour / cognitive impairment, elevated plus maze [3] | Neuroprotection in animal models of stroke (animal models of stroke) | Escape latency performance, Morris water maze [4] | Adverse events / side effects in phase I clinical trials [5]
YGRKKRRQRRR [standard tat peptide] | binds to and inhibits N-type calcium channels | – | – | – | – | – | – | – | – | – | –
YGRKKRRQRRRKLSSIESDV (synthetic chimeric PDZ-binding ligand (PL) motif active peptide linked to HIV TAT internalization peptide, Tat-NR2B9c-(SDV)) | – | did not decrease neuron loss; also recorded: comparable to neuron loss in untreated rats; also recorded: not during | increased NeuN-immunostaining; also recorded: This effect was reversed | rescued neuron loss in a dose-dependent manner; also recorded: especially protective; also recorded: conferred neuroprotection; also recorded: neuroprotective in the anterior CA1 region of the hippocampus; also recorded: neuroprotective when administered after; also recorded: dose-dependent neuroprotection | increased the number of surviving neuronal cells | confers neuroprotection | reduced them to the size found in rats who had not been given pilocarpine; also recorded: dramatic reduction of lateral ventricle size; also recorded: noticeably smaller lateral ventricles | decreased these effects of SE on exploratory behavior; also recorded: reduces the cognitive impairment caused by status epilepticus | highly neuroprotective | improves escape latency performance, especially during the initial 5 days of acquisition learning | without serious adverse events
